From EP0425968A2, “Novel multiple layer transdermal drug administration system” (G.D. Searle & Co., priority 1989, dated 1991)

Key:
in vivo = experiment: in vivo; design: species or system rhesus monkeys; details: female, rhesus monkey, iv, 0.05 mg, AUC Area Under the Curve after intravenous administration
Experimental: Serum concentration time profiles after intravenous administration: Four female rhesus monkeys, #388, #391, #423, and #430, were used in a cross over design for IV and pad bioavailability experiments. From each monkey, 7 ml of blood sample was removed on the previous day of the experiment, centrifuged to separate serum, and stored at -20°C till the analysis. This serum sample was used to make blanks and standards. […] The serum was separated from blood via centrifugation and stored at -20 °C till analysis.
Analysis of serum samples. […] The aqueous extracts were analyzed by an HPLC-Fluorescence method.

[1] = Serum concentration time profile and pharmacokinetics after transdermal pad administration; format: in vivo, rhesus monkeys; details: rhesus monkey, read-out: AUC Area Under the Curve after transdermal administration
Experimental: Serum concentration time profiles after transdermal pad administration. After overnight fasting, on the day of the experiment, monkeys were restrained in chairs and the chest areas were clipped to remove hair, avoiding any injury to the skin tissue. Skin surface was wiped with isopropyl alcohol swab and a 4 square centimeter portion of the pad was then applied to the chest area for 24 hours and was removed as described previously. Following the pad application, blood samples were removed at 0.00, 0.5, 1.00, 1.50, 3.00, 5.00, 7.00, 12.00, 24.00, 31.00, and 48.00 hours, centrifuged to separate serum and stored at -20 °C till the analysis.
Analysis of serum samples. Serum albuterol and internal standard bamethan sulphate were extracted into chloroform to remove polar interfering substances and reextracted in to the aqueous phase to eliminate nonpolar materials. The aqueous extracts were analyzed by an HPLC-Fluorescence method.

[2] = use for preterm labor; cited from earlier work
[3] = Figure 1; against prior art agents such as Azone® and isopropyl alcohol (IPA)

CC(C)(C)NCC(O)c1ccc(O)c(CO)c1 (stereo not shown) [albuterol]
AUC (in vivo): 70.7 ng·h/mL
AUC ([1]; Monkey #423, Transdermal dose 0.77 mg.Kg⁻¹): 1530 ng·h/mL
AUC ([1]; topical or ocular, Monkey #388, Transdermal dose 0.38 mg.Kg⁻¹): 712 ng·h/mL
AUC ([1]; topical or ocular, Monkey #391, Transdermal dose 0.39 mg.Kg⁻¹): 777 ng·h/mL
AUC ([1]; topical or ocular, Monkey #430, Transdermal dose 0.72 mg.Kg⁻¹): 1260 ng·h/mL
plasma levels needed for uterine relaxation [2]: 8 to 33 nanograms per milliliter

CCO [ethanol]
effect of adjuvant agent on the flux of albuterol [3]: most effective
